Results: US20160114050A1, “Heparosan/Therapeutic Prodrug Complexes and Methods of Making and Using Same” (The Board of Regents of the University of Oklahoma, priority 2014, published 2016)

T1: mammalian heparanase (HEPase) (Homo sapiens, UniProt Q9Y251)
T1 sequence (Q9Y251 158-543 limits assumed): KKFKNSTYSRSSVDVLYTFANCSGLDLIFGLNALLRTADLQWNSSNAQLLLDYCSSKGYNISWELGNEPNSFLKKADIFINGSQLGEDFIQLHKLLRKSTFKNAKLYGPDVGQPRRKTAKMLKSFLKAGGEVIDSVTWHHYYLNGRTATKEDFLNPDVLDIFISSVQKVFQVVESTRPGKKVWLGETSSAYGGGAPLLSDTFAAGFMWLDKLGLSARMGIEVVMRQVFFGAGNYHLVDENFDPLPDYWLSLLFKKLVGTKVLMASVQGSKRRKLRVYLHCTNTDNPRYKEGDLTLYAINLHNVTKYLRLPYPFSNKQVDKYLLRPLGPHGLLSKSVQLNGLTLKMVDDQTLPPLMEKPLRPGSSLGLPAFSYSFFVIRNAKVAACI
T1 sequence (Q9Y251 36-109 limits assumed): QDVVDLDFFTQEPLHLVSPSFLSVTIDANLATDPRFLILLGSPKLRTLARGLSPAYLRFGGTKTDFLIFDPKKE


What was measured:
[1] = target: T1, mammalian heparanase (HEPase); settings: cited from earlier work
[2] = tested on: anti-heparosan antibodies; experiment: ELISA serological test for anti-heparosan IgG/IgM antibodies after repeated immunization; assay type: in vivo; settings: rat, multiple boosts over approximately seven months
Excerpt: FIG. 7 depicts the serological test results for potential induction of anti-heparosan antibodies against a heparosan-containing molecule (HEP-G-CSF, heparosan sugar polymer attached to the Granulocyte Colony Stimulating Factor (G-CSF) protein) in a rat model. A control pre-immune sera was collected, and then three animals (Rat #1, #2, and #3) were immunized and periodically boosted with HEP-G-CSF eight times over an approximately seven month period followed by periodic test bleeds. The various serum samples were tested in 96-well plates via ELISA. First, the wells of the plate were coated either with: (i) bovine serum albumin (BSA) to assess the background (‘Control’ shown in grey bars); or (ii) heparosan-BSA (HEP-BSA) conjugate (‘HEP’; shown in black bars), to measure any potential immune response. After blocking all the wells with BSA and washing thoroughly, 1 μl of the pre-immunization serum (the negative control Prebleed, ‘PreB’) or post-immunization serum (collected either on week 9 (Bleed #1; B#1), week 15 (B#2), or week 30 (B#3)) was incubated with wells (the rats had 3, 5, or 9 injections of test antigen, respectively, before these three bleeds). After washing the wells, the presence of any bound rat antibodies was determined by interaction with either an anti-rat IgG (Panel A) or an anti-rat lgM (Panel B) goat secondary antibody-horseradish peroxidase conjugate. […]

Row | Molecule | HEPase? substantially sensitive to cleavage by mammalian heparanase [1] | induction of specific anti-heparosan antibodies (IgG, IgM) [2]
1 | Dermatan sulfate | No | –
2 | HEP-G-CSF (conjugate, UniProt P09919 31-207, looked up, heparosan polymer conjugate) Granulocyte …: TPLGPASSLPQSFLLKCLEQVRKIQGDGAALQEKLVSECATYKLCHPEELVLLGHSLGIPWAPLSSCPSQALQLAGCLSQLHSGLFLYQGLLQALEGISPELGPTLDTLQLDVADFATTIWQQMEELGMAPALQPTQGAMPAFASAFQRRAGGVLVASHLQSFLEVSYRVLRHLAQP | – | no specific antibodies against heparosan were observed
